The values below come from US20160199469A1, “ONCOLOGY VACCINE” (priority 2013, published 2016).

Common to all, as to assay type: cell-based, human
Assay [1] concerns PBMC from individuals with non-small cell lung cancer (NSCLC). Description: IFNγ ELISpot after 7 day short-term culture, NSCLC patients (Example 3). To be noted: for responder frequency: NSCLC patients, percentage of patients with peptide responses of greater than 500 SFC/million, peptide pools 5 μg/peptide/mL; for IFN-γ ELISpot spot intensity in NSCLC patients compared with healthy subjects: FIG. 7, Mann-Whitney unpaired test.

Assay [2] concerns PBMC from healthy subjects. Description: Peptide-specific T cell responses by IFN-γ ELISpot after short term culture, healthy subjects (Example 2). To be noted: positive response = SFC/10^6 PBMC greater than 20, pools of overlapping 18-mer peptides at 5 μg/peptide/mL.
Protocol: Peptide-specific T cell responses were evaluated in peripheral mononuclear cells obtained from healthy subjects. After thawing, PBMC were cultured in 24-well flat bottom plates (or 48-well bottom plates) at a density of 1 million cells per ml in the presence of culture medium (RPMI 1640 Medium, Glutamax™ (Life Technologies) with 5% (v/v) human AB Serum (PAA Laboratories Ltd)) and a pool of peptides (composed of P103-P53, P513_MAGE3, P679_MAGE3, P805_NY_ESO1, P1575_HER, P2238-HER, P3825_MUC1, P3776_MUC1, P4540_hTERT, P4575_hTERT, P5400_MAGE1, P-HAGE) at a total final concentration of 20 μg/mL.
The plates were incubated at 37° C. in a 5% CO2 incubator and on Day 4, recombinant human IL-2 and IL-15 (R&D Systems) were added to each well at final concentrations of 10 IU/ml and 10 ng/mL respectively. On Day 7, PBMC cultures were removed and washed in culture medium and replaced back into wells in culture medium containing 10 IU/mL of IL-2. After overnight resting at 37° C. in a 5% CO2 incubator, cells were removed, counted and assessed for viability. PVDF plates (MSIPS4510, Millipore) were coated with anti-human IFN-γ antibody (R&D systems) and incubated overnight at 4° C. Plates were then washed and incubated with blocking buffer (1% BSA (PAA), 5% sucrose (Fisher), Dulbecco's-PBS (Invitrogen)) for at least 1 hour and finally washed with culture medium before use. […] After 18 hours of culture, plates were washed and incubated with a biotinylated secondary anti-human IFN-γ antibody (R&D systems) followed by streptavidin-AP. Production of IFN-γ was detected using the ELISpot blue colour module (R&D Systems) as per manufacturer's instructions. Plates were scanned and wells were counted using an automated ELISpot plate reading system equipped with spot counting software (Cellular Technology Limited). Results are expressed as Spot Forming Cells (SFC)/10^6 PBMC and background responses represented by IFNγ SFC of PBMC in culture medium alone have been subtracted for each subject. Positive response was defined as number of Spot Forming Cells (SFC)/10^6 PBMC greater than 20.
Another assay has as its system PBMC from NSCLC subjects. Briefly: Intracellular cytokine staining (ICS) of CD4+ and CD8+ T cells after short-term culture. To be noted: for Th1 cytokine-producing CD4 and/or CD8 T cell responses: intracellular cytokine staining, FIGS. 8, 9 and 10; for level of response among the peptides in the mixture: short term culture with a combination of peptide pools. On the procedure: PBMC were cultured in 2 mL culture medium (CM, RPMI1640 Glutamax supplemented with 5% untreated human AB serum (PAA) and gentamicin) in 24 well cell culture plates at a concentration of 1×10^6 cells/mL for a total of 7 days. Each pool was added at 20 μg/mL total peptide final concentration. On day 1, IL-7 (Peprotech) and IL-2 (R&D Systems) were added to the cultures to a final concentration of 5 ng/mL and 10 IU/mL respectively. On day 3, IL-2 was added at a concentration of 10 IU/mL. On day 7, cells were harvested from cell culture plates washed with culture medium and counted using TruCount (BD Biosciences) before analysis using IFNγ (interferon gamma) ELISpot assay or intracellular cytokine staining (ICS) as described below.
Short term culture of PBMC were prepared as described above, except culture conditions 1 and 2 were replaced with alternative culture conditions 1 to 5 below, each of which involves stimulation with a different combination of peptide pools:
Culture 5: P-P805_NY_ESO1
Cells from the short-term cultures were plated in a 96 well round bottom plate at 5×10^5 PBMC/well stimulated with individual peptide pools used at a concentration of 5 μg/peptide/mL. Plates were incubated at 37° C. in a 5% CO2 incubator for 20h. PMA/Ionomycin was added to respective wells and Golgi plug (BD Biosciences) was added to all wells after the first 3h of the assay. The cells were harvested and washed with PBS+0.1% BSA (wash buffer) and stained with anti-CD3, anti-CD4 and anti-CD8 (BD Biosciences) for 30 minutes at 4° C. After another wash, the cells were fixed and permeabilised with 100 μL of Cytofix/Cytoperm solution (BD Biosciences) for 20 minutes at 4° C., followed by two washes with 1× Perm/Wash solution (BD Biosciences). Finally, cells were stained with ant-IL-2-FITC, anti-IFNγ-PE and anti-TNFα PerCP-Cy5.5 (BD Biosciences) for 30 minutes at 4° C. Samples were acquired on a FACSCanto II flow cytometer (BD Biosciences). Gating was based on isotype control antibody staining and media stimulated samples for each subject.

Assay [3] has as its system PBMC from healthy individuals. Description: IFNγ ELISpot after 7 day short-term culture, healthy individuals (Example 3). The settings on record: healthy subjects (FIGS. 3 and 5).

For “AFLSVKKQFEELTLGEFLKLDRERAKNKIAKETNNKKKE (listed as Homo sapiens) [P991_SURVIVIN]”, the responder frequency in assay [1] was found to be 14.51%.

In the case of “AGIRRDGLLLRLVDDFLLVTPHLTHAKTFLRTLVRGVPEYG (listed as Homo sapiens) [P4862_TERT]”, the responder frequency in assay [1] (listed as P4862_hTERT) is on record as 7.93%.

For the sequence “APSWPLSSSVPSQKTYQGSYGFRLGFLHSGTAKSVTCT (listed as Homo sapiens) [P103-P53]”, the “frequency of responding subjects” value in assay [2] was determined as 100%. In addition, the “IFN-γ ELISpot spot intensity in NSCLC patients compared with healthy subjects” value in assay [1] is on record as “significantly lower”. Besides, the “Th1 cytokine-producing CD4 and/or CD8 T cell responses” value in the assay on PBMC from NSCLC subjects is given as “ability to promote Th1 cytokine-producing CD4 and/or CD8 T cell responses”.

Take “EFQAALSRKVAELVHFLLLKYRAREPVTKAEMLG (listed as Homo sapiens) [P513_MAGE3]”: the “frequency of responding subjects” value in assay [2] was found to be 50%. This sequence also came in with a responder frequency in assay [1] of 18.46%.

In the case of “EMFLQIYKQGGFLGLSNIKFRPGSVVVQLTLAFREGTINVH (listed as Homo sapiens) [P3825_MUC1]”, in assay [2], the “frequency of responding subjects” value amounted to 17%. Besides, the responder frequency in assay [1] is given as 8.06%.

For “GAQYRIHTHGVFRGIQDVRRVPGVAPTLVRSASETSEKRPF (listed as Homo sapiens) [P1331_WT1]”, the responder frequency in assay [1] came out at 5.08%.

“GENVKIPVAIKVLRENTSPKANKEILDEAYVMAGVGSPYVSRKK (listed as Homo sapiens) [P2238-HER]”: the “frequency of responding subjects” value in assay [2] is on record as 83%. For the same sequence, the responder frequency in assay [1] was 10.00%.

In the case of “HREARPALLTSRLRFIPKPDGLRPIVNMDYVVGARTFRREK [P4616_hTERT]”, the responder frequency in assay [1] worked out at 37.50%. Besides, the “Th1 cytokine-producing CD4 and/or CD8 T cell responses” value with PBMC from NSCLC subjects is reported as “ability to promote Th1 cytokine-producing CD4 and/or CD8 T cell responses”.

As for “HRLREEILAKFLHWLMSVYVVELLRSFFYVTETTFQKNR (listed as Homo sapiens) [P4540_hTERT]”, the “frequency of responding subjects” value in assay [2] turned out to be 67%. In assay [1], the “IFN-γ ELISpot spot intensity in NSCLC patients compared with healthy subjects” value was “significantly lower” and the responder frequency turned out to be 23.43%. The “Th1 cytokine-producing CD4 and/or CD8 T cell responses” value with PBMC from NSCLC subjects was “ability to promote Th1 cytokine-producing CD4 and/or CD8 T cell responses”.

As for “ILESLFRAVITKKVADLVGFLLLKYRAREPVTKAEMLESVIK (listed as Homo sapiens) [P5232_MAGE1]”, in assay [1], the “IFN-γ ELISpot spot intensity in NSCLC patients compared with healthy subjects” value is recorded as “significantly lower” and the responder frequency came out at 32.25%. In the assay on PBMC from NSCLC subjects, the “Th1 cytokine-producing CD4 and/or CD8 T cell responses” value is “ability to promote Th1 cytokine-producing CD4 and/or CD8 T cell responses”.

Regarding “LGLSYDGLLGDNQIMPKAGLLIIVLAIIAREGD (listed as Homo sapiens) [P590-MAGE3]”, the responder frequency in assay [1] is recorded as 15.87%.

For the sequence “MTPGTQSPFFLLLLLTVLTVVTGSGHASSTPGG (listed as Homo sapiens) [P2753_MUC1]”, in assay [1], the responder frequency came out at 4.76%.

In turn, “PALGSTAPPVHNVTSASGSASGSASTLVHNGTSARATTTPASK (listed as Homo sapiens) [P3698_MUC1]” returned a responder frequency in assay [1] of 14.06%.

As to “PARYEFLWGPRALAETSYVKVLEYVIKVSARVRFFFPSLREA (listed as Homo sapiens) [P5400_MAGE1]”, in assay [2], the “frequency of responding subjects” value is on record as 100%. In assay [1], the “IFN-γ ELISpot spot intensity in NSCLC patients compared with healthy subjects” value was “significantly lower” and the responder frequency is 27.41%. In addition, in the assay with PBMC from NSCLC subjects, the “Th1 cytokine-producing CD4 and/or CD8 T cell responses” value is listed as “ability to promote Th1 cytokine-producing CD4 and/or CD8 T cell responses” and the “level of response among the peptides in the mixture” value (from here on “level”) was “highest level of response”.

“PDGPGGNAGGPGEAGATGGRGPRGAGAARASGPGGGAP (listed as Homo sapiens) [P750-NYESO, used as a negative control peptide]”: the “magnitude of response and responder frequency” value in assay [1] (NSCLC patients (FIGS. 2 and 4)) was “amongst the lowest responding peptides”; in assay [3] it was “amongst the lowest responding peptides”. For the same sequence, the responder frequency in assay [1] was 3.12%.

As for “QTGTGKTLCYLMPGFIHLVLQPSLKGQRNRPGMLV (listed as Homo sapiens) [P-HAGE]”, the “frequency of responding subjects” value in assay [2] came out at 50%. Besides, the “IFN-γ ELISpot spot intensity in NSCLC patients compared with healthy subjects” value in assay [1] is on record as “significantly lower”. In the assay on PBMC from NSCLC subjects, the “Th1 cytokine-producing CD4 and/or CD8 T cell responses” value is given as “ability to promote Th1 cytokine-producing CD4 and/or CD8 T cell responses”.

For the sequence “RAVRSLLRSHYREVLPLATFVRRLGPQGWRLVQRGDPAAFRA (listed as Homo sapiens) [P4020_hTERT]”, in assay [1], the “IFN-γ ELISpot spot intensity in NSCLC patients compared with healthy subjects” value is recorded as “significantly lower” and the responder frequency was found to be 32.81%. In addition, the “Th1 cytokine-producing CD4 and/or CD8 T cell responses” value with PBMC from NSCLC subjects is recorded as “ability to promote Th1 cytokine-producing CD4 and/or CD8 T cell responses”.

For the sequence “RGPESRLLEFYLAMPFATPMEAELARRSLAQDAPPLPVPG (listed as Homo sapiens) [P805_NY_ESO1]”, the “frequency of responding subjects” value in assay [2] was found to be 50%. For the same sequence, in assay [1], the “IFN-γ ELISpot spot intensity in NSCLC patients compared with healthy subjects” value is on record as “significantly lower” and the responder frequency was 34.92%. Besides, in the assay with PBMC from NSCLC subjects, the “Th1 cytokine-producing CD4 and/or CD8 T cell responses” value is reported as “ability to promote Th1 cytokine-producing CD4 and/or CD8 T cell responses” and the “level” value is recorded as “highest level of response”.

Consider “RLLQLHITMPFSSPMEAELVRRILSRDAAPLPRPGAVL (listed as Homo sapiens) [P5525_LAGE1]”, for which, in assay [1], the “IFN-γ ELISpot spot intensity in NSCLC patients compared with healthy subjects” value is on record as “significantly lower” and the responder frequency is recorded as 31.03%. For the same sequence, the “Th1 cytokine-producing CD4 and/or CD8 T cell responses” value in the assay on PBMC from NSCLC subjects is “ability to promote Th1 cytokine-producing CD4 and/or CD8 T cell responses”.

For “RTFRREKRAERLTSRVKALFSVLNYERARRPGLLGASVLGLDDI (listed as Homo sapiens) [P4650_hTERT]”, in assay [1], the “IFN-γ ELISpot spot intensity in NSCLC patients compared with healthy subjects” value is on record as “significantly lower” and the responder frequency turned out to be 38.70%. Also, the “Th1 cytokine-producing CD4 and/or CD8 T cell responses” value in the assay on PBMC from NSCLC subjects was “ability to promote Th1 cytokine-producing CD4 and/or CD8 T cell responses”.

As to “SVVGNWQYFFPVIFSKASSSLQLVEGIELMEVDPIGHLYIF (SVVGNWQYFFPVIFSKASSSLQLVFGIELMEVDPIGHLYIF; listed as Homo sapiens) [P550_MAGE3]”, the “IFN-γ ELISpot spot intensity in NSCLC patients compared with healthy subjects” value in assay [1] is on record as “significantly lower”. Also, in the assay with PBMC from NSCLC subjects, the “Th1 cytokine-producing CD4 and/or CD8 T cell responses” value was “ability to promote Th1 cytokine-producing CD4 and/or CD8 T cell responses” and the “level” value is “highest level of response”.

For “TFQKNRLFFYRKSVWSKLQSIGIRQHLKRVQLRELSEAEVR (listed as Homo sapiens) [P4575_hTERT]”, in assay [2], the “frequency of responding subjects” value is 100%. In the assay with PBMC from NSCLC subjects, the “Th1 cytokine-producing CD4 and/or CD8 T cell responses” value is listed as “ability to promote Th1 cytokine-producing CD4 and/or CD8 T cell responses”.

For “TSSNHSTSPQLSTGVSFFFLSFHISNLQFNSSLEDPST (listed as Homo sapiens) [P3776_MUC1]”, in assay [2], the “frequency of responding subjects” value was determined as 100%. The sequence further gave a responder frequency in assay [1] of 4.76%.

As to “VQGYVLIAHNQVRQVPLQRLRIVRGTQLFEDNYALAVL (listed as Homo sapiens) [P1575_HER]”, in assay [2], the “frequency of responding subjects” value is on record as 100%. In assay [1], this sequence came in with a responder frequency of 16.12%.

For “YEFLWGPRALVETSYVKVLHHMVKISGGPHISYPPLH (listed as Homo sapiens) [P679_MAGE3]”, the “frequency of responding subjects” value in assay [2] turned out to be 80%. For the same sequence, in assay [1], the “IFN-γ ELISpot spot intensity in NSCLC patients compared with healthy subjects” value is “significantly lower” and the responder frequency came to 28.57%. Besides, the “Th1 cytokine-producing CD4 and/or CD8 T cell responses” value in the assay with PBMC from NSCLC subjects was “ability to promote Th1 cytokine-producing CD4 and/or CD8 T cell responses”.
